In patent publication US20240174634A1, “Aldehyde Dehydrogenase Inhibitors and Their Therapeutic Use” (priority 2020, published 2024):

target: T1, ALDH1A3 (Homo sapiens, UniProt P47895); assay: ALDH1A3 cellular assay (ALDEFLUOR) in WM266.4 melanoma cells; format: cell-based; details: WM266.4 cells; 60 min incubation; percentage of ALDH-positive cells
T1 sequence (P47895 1-512): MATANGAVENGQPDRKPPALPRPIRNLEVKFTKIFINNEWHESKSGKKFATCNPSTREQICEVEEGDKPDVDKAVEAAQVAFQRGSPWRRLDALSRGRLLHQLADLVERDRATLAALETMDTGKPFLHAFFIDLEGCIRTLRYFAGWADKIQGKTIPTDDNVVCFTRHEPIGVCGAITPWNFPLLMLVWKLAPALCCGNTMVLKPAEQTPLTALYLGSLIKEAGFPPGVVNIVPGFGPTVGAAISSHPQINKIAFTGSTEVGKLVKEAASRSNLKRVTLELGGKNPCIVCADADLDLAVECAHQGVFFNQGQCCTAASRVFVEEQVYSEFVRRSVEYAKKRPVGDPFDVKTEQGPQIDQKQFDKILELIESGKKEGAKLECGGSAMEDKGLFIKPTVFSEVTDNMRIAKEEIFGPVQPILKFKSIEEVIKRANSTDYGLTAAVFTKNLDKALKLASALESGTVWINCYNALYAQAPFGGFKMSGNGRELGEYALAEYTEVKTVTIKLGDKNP
Source text: Materials: WM266.4 cells were procured from ATCC. (WM266-4 is a metastatic human melanoma cell line.) The ALDEFLUOR™ Assay kit (cat. no. 01700) and Aldefluor buffer (cat. no. 01702) were procured from StemCell Technologies. Dulbecco's Modified Eagle Medium (DMEM), FluoroBrite DMEM, Glutamax and Hoechst 33342 were purchased from ThermoFisher. Verapamil was obtained from Fluorochem. FBS was obtained from Sigma. Echo Qualified 384-well low-dead-volume microplate and Echo Qualified 384-well polypropylene microplate were purchased from Labcyte, and the Microclear black sterile polystyrene microplate from Greiner Bio-One.
Method: Intracellular inhibition of ALDH1A3 was assessed using the ALDEFLUOR™ Assay kit. The activated ALDEFLUOR™ reagent, BODIPY-aminoacetaldehyde (BAAA), is a fluorescent non-toxic substrate for ALDH enzymes, which freely diffuses into intact and viable cells. In the presence of ALDH enzyme activity, BAAA is converted into BODIPY-aminoacetate (BAA), which is retained inside the cells. The amount of fluorescent reaction product is proportional to the ALDH activity in the cells and is measured using an imaging cytometer. Active efflux of the reaction product is inhibited by an efflux inhibitor (Verapamil) in the ALDEFLUOR™ Assay Buffer.
A frozen vial of cells was recovered into a T225 flask containing DMEM, high glucose, 10% FBS, 1% glutamax, 1% HEPES. The following day, media was changed and cells were ready for assay from 72 hours after recovery. Cells were transferred into FluoroBrite DMEM (plus 10% FBS, 1% glutamax and 1% HEPES) and diluted to 2.5×10^5 cells/mL. 30 μL of cells were added to each well to give 7500 cells/well and then incubated overnight at 37° C., 5% CO2. After overnight incubation, the media was aspirated and replaced by 20 μL substrate/Hoechst buffer solution. Each plate requires 9 mL of solution comprising, 9 mL ALDEFLUOR assay buffer, 18 μL BAAA substrate (final concentration 500 nM), 4.5 μL Hoechst 33342 (final concentration 5 μg/mL) and 4.5 μL Verapamil (final concentration 50 μM). Compounds were prepared for dosing using the Echo acoustic dispenser by aliquoting into a source plate and dosed directly onto the cell assay plate to give a 10 point dose response per compound ranging from 10 μM to 0.0005 μM final concentration in 3-fold dilution steps. Plates were then incubated for 60 minutes at 37° C., 5% CO2. The buffer was then aspirated and cells washed twice in ice-cold PBS. Plates were kept on ice and 30 μL of cold Aldefluor buffer with 50 μM verapamil dispensed per well. The plates were then imaged using the CellInsight fluorescent microscope. Hoechst fluorescence in the 405 nm channel indicated the nuclear area and this was used to define nuclei and then the surrounding cellular area. Fluorescence in the 488 nm channel of the defined cellular area indicates ALDH1A3 activity. The percentage of cells positive for ALDH activity was plotted versus compound concentration to generate EC50 values using curve fitting parameters defined in Dotmatics software.

SMILES	IC50 [nM]
O=C1CCc2cc(OCCN3CCCC3c3ccccc3)ccc2N1 (stereo not drawn) [ALDHI-2019, 6-[2-(2-phenylpyrrolidin-1-yl)ethoxy]-3,4-dihydro-1H-quinolin-2-one]	100 to 1000
O=C1CCCc2cc(OCCN3CCCC3c3cccc(F)c3)ccc2N1 (stereo not drawn) [ALDHI-2020, 7-[2-[2-(3-fluorophenyl)pyrrolidin-1-yl]ethoxy]-1,3,4,5-tetrahydro-1-benzazepin-2-one]	100 to 1000
O=C1CCc2cc(OCCN3CCC3c3cccc(F)c3)ccc2N1 (stereo not drawn) [ALDHI-2021, 6-[2-[2-(3-fluorophenyl)azetidin-1-yl]ethoxy]-3,4-dihydro-1H-quinolin-2-one]	1000 to 10000
O=c1ccc2cc(OCCN3CCCC3c3cccc(F)c3)ccc2[nH]1 (stereo not drawn) [ALDHI-2022, 6-[2-[2-(3-fluorophenyl)pyrrolidin-1-yl]ethoxy]-1H-quinolin-2-one]	100 to 1000
O=C1CCc2cc(OCCn3nccc3-c3cccc(F)c3)ccc2N1 [ALDHI-2023, 6-[2-[5-(3-fluorophenyl)pyrazol-1-yl]ethoxy]-3,4-dihydro-1H-quinolin-2-one]	< 100
Cn1cc(C2CCCN2CCOc2ccc3c(c2)SCC(=O)N3)cn1 (stereo not drawn) [ALDHI-2026, 7-[2-[2-(1-methylpyrazol-4-yl)pyrrolidin-1-yl]ethoxy]-4H-1,4-benzothiazin-3-one]	1000 to 10000
O=C1CSc2cc(OCCN3CCCC3c3ccccn3)ccc2N1 (stereo not drawn) [ALDHI-2027, 7-[2-[2-(2-pyridyl)pyrrolidin-1-yl]ethoxy]-4H-1,4-benzothiazin-3-one]	1000 to 10000
O=C1CSc2cc(OCCN3CCCC3c3cccnc3)ccc2N1 (stereo not drawn) [ALDHI-2028, 7-[2-[2-(3-pyridyl)pyrrolidin-1-yl]ethoxy]-4H-1,4-benzothiazin-3-one]	100 to 1000
O=C1CSc2cc(OCCN3CCCC3c3ccncc3)ccc2N1 (stereo not drawn) [ALDHI-2029, 7-[2-[2-(4-pyridyl)pyrrolidin-1-yl]ethoxy]-4H-1,4-benzothiazin-3-one]	100 to 1000
Cc1ccc(C2CCCN2CCOc2ccc3c(c2)CCC(=O)N3)cn1 (stereo not drawn) [ALDHI-2030, 6-[2-[2-(6-methyl-3-pyridyl)pyrrolidin-1-yl]ethoxy]-3,4-dihydro-1H-quinolin-2-one]	100 to 1000
O=C1CCc2cc(OCCN3CCOCC3c3cccc(F)c3)ccc2N1 (stereo not drawn) [ALDHI-2031, 6-[2-[3-(3-fluorophenyl)morpholin-4-yl]ethoxy]-3,4-dihydro-1H-quinolin-2-one]	< 100
O=C1CCc2cc(OCCN3CCCC3c3cc(F)cc(F)c3)ccc2N1 (stereo not drawn) [ALDHI-2032, 6-[2-[2-(3,5-difluorophenyl)pyrrolidin-1-yl]ethoxy]-3,4-dihydro-1H-quinolin-2-one]	< 100
Cc1nc(C2CCCN2CCOc2ccc3c(c2)CCC(=O)N3)cs1 (stereo not drawn) [ALDHI-2033, 6-[2-[2-(2-methylthiazol-4-yl)pyrrolidin-1-yl]ethoxy]-3,4-dihydro-1H-quinolin-2-one]	1000 to 10000
COc1cccc(C2CCCN2CCOc2ccc3c(c2)CCC(=O)N3)c1 (stereo not drawn) [ALDHI-2034, 6-[2-[2-(3-methoxyphenyl)pyrrolidin-1-yl]ethoxy]-3,4-dihydro-1H-quinolin-2-one]	1000 to 10000
CC1(c2cccc(F)c2)CCCN1CCOc1ccc2c(c1)CCC(=O)N2 (stereo not drawn) [ALDHI-2037, 6-[2-[2-(3-fluorophenyl)-2-methyl-pyrrolidin-1-yl]ethoxy]-3,4-dihydro-1H-quinolin-2-one]	< 100
O=C1CCc2cc(OCCN3CCCCC3c3cccc(F)c3)ccc2N1 (stereo not drawn) [ALDHI-2038, 6-[2-[2-(3-fluorophenyl)-1-piperidyl]ethoxy]-3,4-dihydro-1H-quinolin-2-one]	1000 to 10000
O=C1CCc2cc(OCCN3CCCC3c3ccc(F)c(F)c3)ccc2N1 (stereo not drawn) [ALDHI-2039, 6-[2-[2-(3,4-difluorophenyl)pyrrolidin-1-yl]ethoxy]-3,4-dihydro-1H-quinolin-2-one]	100 to 1000

SMILES	IC50 [nM]
CC1(c2ccccc2)COCCN1CCOc1ccc2c(c1)CCC(=O)N2 (stereo not drawn) [ALDHI-2040, 6-[2-(3-methyl-3-phenyl-morpholin-4-yl)ethoxy]-3,4-dihydro-1H-quinolin-2-one]	100 to 1000
O=C1CCc2cc(OCCn3ccnc3-c3ccccc3)ccc2N1 [ALDHI-2041, 6-[2-(2-phenylimidazol-1-yl)ethoxy]-3,4-dihydro-1H-quinolin-2-one]	1000 to 10000
CC1(C)Oc2cc(OCCN3CCCC3c3cccc(F)c3)ccc2NC1=O (stereo not drawn) [ALDHI-2043, 7-[2-[2-(3-fluorophenyl)pyrrolidin-1-yl]ethoxy]-2,2-dimethyl-4H-1,4-benzoxazin-3-one]	100 to 1000
CC1Oc2cc(OCCN3CCCC3c3cccc(F)c3)ccc2NC1=O (stereo not drawn) [ALDHI-2044, 7-[2-[2-(3-fluorophenyl)pyrrolidin-1-yl]ethoxy]-2-methyl-4H-1,4-benzoxazin-3-one]	100 to 1000
CCC1Oc2cc(OCCN3CCCC3c3cccc(F)c3)ccc2NC1=O (stereo not drawn) [ALDHI-2045, 2-ethyl-7-[2-[2-(3-fluorophenyl)pyrrolidin-1-yl]ethoxy]-4H-1,4-benzoxazin-3-one]	< 100
CC1Cc2cc(OCCN3CCCC3c3cccc(F)c3)ccc2NC1=O (stereo not drawn) [ALDHI-2048, 6-[2-[2-(3-fluorophenyl)pyrrolidin-1-yl]ethoxy]-3-methyl-3,4-dihydro-1H-quinolin-2-one]	< 100
O=C1CCc2cc(OCCN3CCCC3c3cccc(F)c3)c(F)cc2N1 (stereo not drawn) [ALDHI-2050, 7-fluoro-6-[2-[2-(3-fluorophenyl)pyrrolidin-1-yl]ethoxy]-3,4-dihydro-1H-quinolin-2-one]	100 to 1000
O=C1CCc2cc(OCCN3C(=O)CCC3c3ccccc3)ccc2N1 (stereo not drawn) [ALDHI-2051, 6-[2-(2-oxo-5-phenyl-pyrrolidin-1-yl)ethoxy]-3,4-dihydro-1H-quinolin-2-one]	< 100
O=C1CCc2cc(OCCN3CC(F)CC3c3cccc(F)c3)ccc2N1 (stereo not drawn) [ALDHI-2052, 6-[2-[4-fluoro-2-(3-fluorophenyl)pyrrolidin-1-yl]ethoxy]-3,4-dihydro-1H-quinolin-2-one]	< 100
O=C1CCc2cc(OCCN3CC(F)(F)CC3c3cccc(F)c3)ccc2N1 (stereo not drawn) [ALDHI-2053, 6-[2-[4,4-difluoro-2-(3-fluorophenyl)pyrrolidin-1-yl]ethoxy]-3,4-dihydro-1H-quinolin-2-one]	< 100
CN(CCOc1ccc2c(c1)CCC(=O)N2)Cc1cccc(F)c1 [ALDHI-3001, 6-[2-[(3-fluorophenyl)methyl-methyl-amino]ethoxy]-3,4-dihydro-1H-quinolin-2-one]	100 to 1000
O=C1CCc2cc(OCCN(CCO)Cc3cccc(F)c3)ccc2N1 [ALDHI-3002, 6-[2-[(3-fluorophenyl)methyl-(2-hydroxyethyl)amino]ethoxy]-3,4-dihydro-1H-quinolin-2-one]	< 100
CN(CCOc1ccc2c(c1)CCC(=O)N2)C(CO)c1cccc(F)c1 (stereo not drawn) [ALDHI-3003, 6-[2-[[1-(3-fluorophenyl)-2-hydroxy-ethyl]-methyl-amino]ethoxy]-3,4-dihydro-1H-quinolin-2-one]	100 to 1000
CCN(CC)CCN(CCOc1ccc2c(c1)CCC(=O)N2)Cc1ccccc1 [ALDHI-3004, 6-[2-[benzyl-[2-(diethylamino)ethyl]amino]ethoxy]-3,4-dihydro-1H-quinolin-2-one]	< 100
O=C1CCc2cc(OCCN(CCO)Cc3cccnc3)ccc2N1 [ALDHI-3005, 6-[2-[2-hydroxyethyl(3-pyridylmethyl)amino]ethoxy]-3,4-dihydro-1H-quinolin-2-one]	100 to 1000
C[C@H](c1ccccc1)N(CCO)CCOc1ccc2c(c1)CCC(=O)N2 [ALDHI-3006, 6-[2-[2-hydroxyethyl-[(1R)-1-phenylethyl]amino]ethoxy]-3,4-dihydro-1H-quinolin-2-one]	100 to 1000
